In one assay the test system is BaF3-EGFR (WT) cells. In words: Inhibitory activity on Ba/F3 cell proliferation (CellTiter-Glo, 72 hours). Format: cell-based. The following applies: Ba/F3 cells expressing EGFR WT. As for the experimental part:
(§1) The following experiments were performed to evaluate the inhibitory activity of the compound represented by Chemical Formula 1 according to the present invention on the proliferation of Ba/F3 cells expressing EGFR mutants.
(§2) BaF3-EGFR (WT) and BaF3-EGFR (Del19/T790M/C797S) cells were seeded in a clear bottom white 96-well plate at a density of 3×10^3/100 μl/well, and then 0.5 μl/well of the culture medium, containing the compounds at 12 concentrations (0.00001-2 mM) serially diluted in 3 folds and the DMSO control, was added to a final concentration of 0.00005-10 μM, followed by culturing in a 37° C. CO2 incubator for 72 hours. After 72 hours, the plates treated with the compounds were taken out, treated with 100 μl/well of CellTiter-Glo® 2.0 Assay (Promega) solution, and mixed well. After mixing well at room temperature for about 10 minutes, […] was measured using a microplate reader. As to Data, GI50 (μM) values were calculated using GraphPad Prism 8.3.0 (GraphPad software Inc., San Diego) as percentages in proportion to vehicle-based treated cells. The result values were calculated as a cell growth rate (%) compared to the control group. A graph was created using the GraphPad Prism version 5.0 program, and GI50 (μM) values were calculated.
(ATP-based viability assays read luminescence as a measure of living cells.)

Assay [1] has as its system BaF3-EGFR (Del19/T790M/C797S) cells. Described as above. The format is cell-based. The settings on record: Ba/F3 cells expressing EGFR Del19/T790M/C797S. Here is the method:
as §1, §2

SMILES strings stand for the structures. Where only a bound is given, the exact number is not on record here.

One may read the GI50 as the concentration giving 50% growth inhibition. Low values mean more potent growth inhibition, high ones less potent growth inhibition. With `CN1CCN(c2ccc(Nc3nc(Nc4ccc5nccnc5c4P(C)(C)=O)c4cc[nH]c4n3)c(OCC(F)(F)F)c2)CC1` [Example 7, dimethyl (6-((2-((4-(4-methylpiperazin-1-yl)-2-(2,2,2-trifluoroethoxy)phenyl)amino)-7H-pyrrolo[2,3-d]pyrimidin-4-yl)amino)quinoxalin-5-yl)phosphine oxide], the GI50 (in the assay on BaF3-EGFR (WT) cells; in assay [1]) was over 0.1 µM in each case.

Take `C[C@@H]1CN(c2cc(OCC(F)(F)F)c(Nc3nc(Nc4ccc5nccnc5c4P(C)(C)=O)c4cc[nH]c4n3)cc2-c2cnn(C)c2)C[C@H](C)O1` [Example 10, (6-((2-((4-((2R, 6S)-2,6-dimethyl-morpholino)-5-(1-methyl-1H-pyrazol-4-yl)-2-(2,2,2-trifluoroethoxy)phenyl)amino)-7H-pyrrolo[2,3-d]pyrimidin-4-yl)amino)quinoxalin-5-yl)dimethyl phosphine oxide]: the GI50 was over 0.1 µM in the assay with BaF3-EGFR (WT) cells and at most 0.05 µM in assay [1].

Turning to `Cc1cc(Nc2nc(Nc3ccc4nccnc4c3P(C)(C)=O)c3cc[nH]c3n2)c(OCC(F)(F)F)cc1N1CCOCC1` [Example 11, dimethyl (6-((2-((5-methyl-4-morpholino-2-(2,2,2-trifluoroethoxy)phenyl)amino)-7H-pyrrolo[2,3-d]pyrimidin-4-yl)amino)quinoxalin-5-yl) phosphineoxide], the GI50 (in the assay with BaF3-EGFR (WT) cells; in assay [1]) was over 0.1 µM in each case.

On to `Cc1cc(Nc2nc(Nc3ccc4nccnc4c3P(C)(C)=O)c3cc[nH]c3n2)c(OCC(F)(F)F)cc1N1CCC(N2CCOCC2)CC1` [Example 12, dimethyl (6-((2-((5-methyl-4-(4-morpholino-piperidin-1-yl)-2-(2,2,2-trifluoroethoxy)phenyl)amino)-7H-pyrrolo[2,3-d]pyrimidin-4-yl)amino)quinoxalin-5-yl) phosphineoxide], for which the GI50 (with BaF3-EGFR (WT) cells; in assay [1]) was over 0.1 µM each time.

For the molecule `CN1CCN(c2cc(OCC(F)(F)F)c(Nc3nc(Nc4cnc5ccccc5c4P(C)(C)=O)c4cc[nH]c4n3)cc2-c2cnn(C)c2)CC1` [Example 14, dimethyl (3-((2-((5-(1-methyl-1H-pyrazol-4-yl)-4-(4-methylpiperazin-1-yl)-2-(2,2,2-trifluoroethoxy)phenyl)amino)-7H-pyrrolo[2,3-d]pyrimidin-4-yl)amino)quinolin-4-yl)phosphine oxide], the GI50 (in the assay on BaF3-EGFR (WT) cells; in assay [1]) was over 0.1 µM in each case.

Consider `Cn1cc(-c2cc(Nc3nc(Nc4ccc5nccnc5c4P(C)(C)=O)c4cc[nH]c4n3)ccc2N2CCC(N3CCOCC3)CC2)cn1` [Example 40, dimethyl (6-((2-((3-(1-methyl-1H-pyrazol-4-yl)-4-(4-morpholino-piperidin-1-yl)phenyl)amino)-7H-pyrrolo[2,3-d]pyrimidin-4-yl)amino)quinoxalin-5-yl) phosphinexide], for which the GI50 in the assay with BaF3-EGFR (WT) cells is 0.05 to 0.1 µM; in assay [1] it was at most 0.05 µM.

Turning to `COc1cc(N2CCN(C3CC3)CC2)c(-c2cnn(C)c2)cc1Nc1nc(Nc2ccc3nccnc3c2P(C)(C)=O)c2cc[nH]c2n1` [Example 42, (6-((2-((4-(4-cyclopropyl-piperazin-1-yl)-2-methoxy-5-(1-methyl-1H-pyrazol-4-yl)phenyl)amino)-7H-pyrrolo[2,3-d]pyrimidin-4-yl)amino)quinoxalin-5-yl)dimethyl-phosphine oxide], the figures for the GI50 (with BaF3-EGFR (WT) cells; in assay [1]) were over 0.1 µM and at most 0.05 µM, respectively.

In the case of `COc1cc(N2CCN(C)CC2)c(-c2cnn(C(C)C)c2)cc1Nc1nc(Nc2ccc3nccnc3c2P(C)(C)=O)c2cc[nH]c2n1` [Example 49, (6-((2-((5-(1-isopropyl-1H-pyrazol-4-yl)-2-methoxy-4-(4-methyl-piperazin-1-yl)phenyl)amino)-7H-pyrrolo[2,3-d]pyrimidin-4-yl)amino)quinoxalin-5-yl)dimethyl-phosphine oxide], the GI50 (in the assay on BaF3-EGFR (WT) cells; in assay [1]) was over 0.1 µM throughout.

For the molecule `COc1cc(N2CCN(C)CC2)c(-c2cnn(C)c2)cc1Nc1nc(Nc2ccc3nccnc3c2P(C)(C)=O)c2c(Cl)c[nH]c2n1` [Example 51, (6-((5-chloro-2-((2-methoxy-5-(1-methyl-1H-pyrazol-4-yl)-4-(4-methylpiperazin-1-yl)phenyl)amino)-7H-pyrrolo[2,3-d]pyrimidin-4-yl)amino)quinoxalin-5-yl)dimethyl-phosphine oxide], the GI50 with BaF3-EGFR (WT) cells was over 0.1 µM; in assay [1] it was 0.05 to 0.1 µM.

Consider `COc1cc(N2CCN(C)CC2)c(-c2cnn(C)c2)cc1Nc1nc(Nc2ccc3nccnc3c2P(C)(C)=O)c2c(C#N)c[nH]c2n1` [Example 52], for which the GI50 (with BaF3-EGFR (WT) cells; in assay [1]) was over 0.1 µM in each case.

As to `COc1cc(N2CCN(C)CC2)c(-c2cnn(C)c2)cc1Nc1nc(Nc2ccc3nccnc3c2P(C)(C)=O)c2c(C(F)(F)F)c[nH]c2n1` [Example 53, (6-((2-((2-methoxy-5-(1-methyl-1H-pyrazol-4-yl)-4-(4-methyl-piperazin-1-yl)phenyl)amino)-5-(trifluoro-methyl)-7H-pyrrolo[2,3-d]pyrimidin-4-yl)amino)quinoxalin-5-yl)dimethyl-phosphine oxide], the GI50 (in the assay with BaF3-EGFR (WT) cells; in assay [1]) was over 0.1 µM in each case.

Take `COc1cc(N2CCC(N3CCN(C)CC3)CC2)ccc1Nc1nc(Nc2ccc3nccnc3c2P(C)(C)=O)c2cc[nH]c2n1` [Example 57, (6-((2-((2-methoxy-4-(4-(4-methylpiperazin-1-yl)piperidin-1-yl)phenyl)amino)-7H-pyrrolo[2,3-d]pyrimidin-4-yl)amino)quinoxalin-5-yl)dimethyl-phosphine oxide]: the concentration for 50% growth inhibition (GI50) (in the assay on BaF3-EGFR (WT) cells; in assay [1]) was 0.05 to 0.1 µM each time.

With `CN1CCN(C2CCN(c3ccc(Nc4nc(Nc5ccc6nccnc6c5P(C)(C)=O)c5cc[nH]c5n4)cc3)CC2)CC1` [Example 58, dimethyl (6-((2-((4-(4-(4-methylpiperazin-1-yl)piperidin-1-yl)phenyl)amino)-7H-pyrrolo[2,3-d]pyrimidin-4-yl)amino)quinoxalin-5-yl)phosphine oxide], the GI50 with BaF3-EGFR (WT) cells was over 0.1 µM; in assay [1], 0.05 to 0.1 µM.

For `COc1cc(N2CCC(N3CCN(C)CC3)CC2)c(C)cc1Nc1nc(Nc2ccc3nccnc3c2P(C)(C)=O)c2sccc2n1` [Example 59, (6-((2-((2-methoxy-5-methyl-4-(4-(4-methylpiperazin-1-yl)piperidin-1-yl)phenyl)amino)thieno [3,2-d]pyrimidin-4-yl)amino)quinoxalin-5-yl)dimethyl-phosphine oxide], the GI50 (in the assay on BaF3-EGFR (WT) cells; in assay [1]) was over 0.1 µM throughout.

Regarding `COc1cc(N2CCC(N3CCN(C)CC3)CC2)c(C)cc1Nc1cc(Nc2ccc3nccnc3c2P(C)(C)=O)c2cc[nH]c2n1` [Example 63, (6-((6-((2-methoxy-5-methyl-4-(4-(4-methylpiperazin-1-yl)piperidin-1-yl)phenyl)amino)-1H-pyrrolo[2,3-b]pyridin-4-yl)amino)quinoxalin-5-yl)dimethyl-phosphine oxide], the GI50 (with BaF3-EGFR (WT) cells; in assay [1]) was over 0.1 µM throughout.

In the case of `COc1cc(N2CCC(N3CCN(C)CC3)CC2)ccc1Nc1cc(Nc2ccc3nccnc3c2P(C)(C)=O)c2cc[nH]c2n1` [Example 64, (6-((6-((2-methoxy-4-(4-(4-methylpiperazin-1-yl)piperidin-1-yl)phenyl)amino)-1H-pyrrolo[2,3-b]pyridin-4-yl)amino)quinoxalin-5-yl)dimethyl-phosphine oxide], the GI50 (with BaF3-EGFR (WT) cells; in assay [1]) was over 0.1 µM each time.
